Columns and labels:
Assay type in all cases: cell-based
[1] = tested on: NCI-H524 human small cell lung cancer cells; assay: H524 assay: inhibition of cell proliferation (CellTiter Glo); settings: 2 h treatment, washout, additional 70 h incubation
Outline: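 Proliferation was measured by CellTiter Glo 70 h after a washout that followed a 2 h pulse of NDC. Doses were an 11-point, two-fold dilution series from 1 uM. IC50 was fitted with a four-parameter model to luminescence-based % inhibition relative to control cells.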

[2] = molecular target: T1, human somatostatin receptor subtype 2 (Homo sapiens, UniProt P30874); assay: Functional assay for SSTR2 agonists (HTRF cAMP); settings: CHO-K1 cells stably expressing human SST2; NKH477-stimulated cAMP; 20 min at 37 C; read-out: hSST2 cAMP Avg EC50
T1 construct: expressed in transfected cells
Outline: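 Agonist activity read as fall in intracellular cAMP: HTRF 665/620 nm ratio regressed to a cAMP standard curve, EC50 fitted. Stable human SSTR2 CHO-K1 cells exposed 20 min at 37 °C to compound, final concentrations typically 0-10,000 nM.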

SST2 = molecular target: T2, SST2 (Homo sapiens, UniProt P30874); assay: PathHunter CHO-K1 SST2 Internalization Assay; settings: PathHunter CHO-K1 SST2 cells; 90 min at 37 C; luminescence; read-out: Internalization EC50
T2 construct: host or cells: PathHunter CHO-K1 SST2 cells
Outline: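 Four-parameter nonlinear fits of background-corrected luminescence (duplicate means) gave IC50s. NDCs were serially diluted 1:3 over 11 points from a 10 uM final top concentration and incubated 90 min at 37 C with human SST2 CHO-K1 cells plated 48 h earlier at 2500/well. Beta-Glo read-out developed 60 min at RT.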

T2 sequence (P30874 whole entry): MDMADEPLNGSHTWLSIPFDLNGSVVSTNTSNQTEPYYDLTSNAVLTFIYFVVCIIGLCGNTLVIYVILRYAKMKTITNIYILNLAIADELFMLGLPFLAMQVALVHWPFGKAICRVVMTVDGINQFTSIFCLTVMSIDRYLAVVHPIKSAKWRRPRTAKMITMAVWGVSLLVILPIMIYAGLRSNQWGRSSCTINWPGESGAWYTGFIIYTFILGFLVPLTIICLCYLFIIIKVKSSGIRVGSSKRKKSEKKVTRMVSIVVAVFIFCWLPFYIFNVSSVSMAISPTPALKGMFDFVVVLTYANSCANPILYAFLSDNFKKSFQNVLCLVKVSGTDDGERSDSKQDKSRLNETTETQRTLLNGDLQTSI
T1 sequence (P30874 whole entry): as above

| Compound | EC50 [1] | EC50 [2] | EC50 (SST2) |
| --- | --- | --- | --- |
| CC[C@H](C)[C@@H]([C@@H](CC(=O)N1CCC[C@H]1[C@H](OC)[C@@H](C)C(=O)N[C@H](C)[C@@H](O)c1ccccc1)OC)N(C)C(=O)[C@@H](NC(=O)[C@H](C(C)C)N(C)C(=O)OCc1ccc(NC(=O)[C@H](CCCNC(N)=O)NC(=O)[C@@H](NC(=O)CCOCCC(=O)NCCNc2ncc(-c3cc(C)cc(F)c3)c(N3CCC(N)CC3)c2-c2nc3c(F)c(F)ccc3[nH]2)C(C)C)c(O[C@@H]2O[C@H](C(=O)O)[C@@H](O)[C@H](O)[C@H]2O)c1)C(C)C [Compound 110] | 120 nM | 1 nM | 23 nM |
| CC[C@H](C)[C@@H]([C@@H](CC(=O)N1CCC[C@H]1[C@H](OC)[C@@H](C)C(=O)N[C@H](C)[C@@H](O)c1ccccc1)OC)N(C)C(=O)[C@@H](NC(=O)[C@H](C(C)C)N(C)C(=O)OCc1ccc(NC(=O)[C@H](C)NC(=O)[C@@H](NC(=O)CN(C)C(=O)CCOCCC(=O)NCCNc2ncc(-c3cc(C)cc(F)c3)c(N3CCC(N)CC3)c2-c2nc3ccc(Cl)cc3[nH]2)C(C)C)c(O[C@@H]2O[C@H](C(=O)O)[C@@H](O)[C@H](O)[C@H]2O)c1)C(C)C [Compound 111] | 19 nM | 0.046 nM | 8.7 nM |
| CC[C@H](C)[C@@H]([C@@H](CC(=O)N1CCC[C@H]1[C@H](OC)[C@@H](C)C(=O)N[C@H](C)[C@@H](O)c1ccccc1)OC)N(C)C(=O)[C@@H](NC(=O)[C@H](C(C)C)N(C)C(=O)OCc1ccc(NC(=O)[C@H](C)NC(=O)[C@@H](NC(=O)CCOCCOCCOCCOCCC(=O)NCCNc2ncc(-c3cc(C)cc(F)c3)c(N3CCC(N)CC3)c2-c2cc3ccc(Cl)cc3[nH]2)C(C)C)c(O[C@@H]2O[C@H](C(=O)O)[C@@H](O)[C@H](O)[C@H]2O)c1)C(C)C [Compound 112] | 10 nM | 0.12 nM | 8.4 nM |
| CC[C@H](C)[C@@H]([C@@H](CC(=O)N1CCC[C@H]1[C@H](OC)[C@@H](C)C(=O)N[C@H](C)[C@@H](O)c1ccccc1)OC)N(C)C(=O)[C@@H](NC(=O)[C@H](C(C)C)N(C)C(=O)OCc1ccc(NC(=O)[C@H](C)NC(=O)[C@@H](NC(=O)CCOCCC(=O)NCCNc2ncc(-c3cc(C)cc(F)c3)c(N3CC[C@H]4NCCO[C@@H]4C3)c2-c2nc3ccc(Cl)cc3[nH]2)C(C)C)c(O[C@@H]2O[C@H](C(=O)O)[C@@H](O)[C@H](O)[C@H]2O)c1)C(C)C [Compound 113] | 2000 nM | 110 nM | 1300 nM |
| CC[C@H](C)[C@@H]([C@@H](CC(=O)N1CCC[C@H]1[C@H](OC)[C@@H](C)C(=O)N[C@H](C)[C@@H](O)c1ccccc1)OC)N(C)C(=O)[C@@H](NC(=O)[C@H](C(C)C)N(C)C(=O)OCc1ccc(NC(=O)[C@H](C)NC(=O)[C@@H](NC(=O)CCOCCC(=O)NCCNc2ncc(-c3cc(C)cc(F)c3)c(N3CC[C@H]4NCCO[C@@H]4C3)c2-c2nc3c(F)cc(F)cc3[nH]2)C(C)C)c(O[C@@H]2O[C@H](C(=O)O)[C@@H](O)[C@H](O)[C@H]2O)c1)C(C)C [Compound 114] | 4600 nM | 85 nM | 850 nM |
| CC[C@H](C)[C@@H]([C@@H](CC(=O)N1CCC[C@H]1[C@H](OC)[C@@H](C)C(=O)N[C@H](C)[C@@H](O)c1ccccc1)OC)N(C)C(=O)[C@@H](NC(=O)[C@H](C(C)C)N(C)C(=O)OCc1ccc(NC(=O)[C@H](C)NC(=O)[C@@H](NC(=O)CCOCCC(=O)NCCNc2ncc(-c3cc(C)cc(F)c3)c(N3CCC(N)CC3)c2-c2cc3ccc(Cl)cc3[nH]2)C(C)C)c(O[C@@H]2O[C@H](C(=O)O)[C@@H](O)[C@H](O)[C@H]2O)c1)C(C)C [Compound 115] | 5.1 nM | 0.075 nM | 5.9 nM |
| CC[C@H](C)[C@@H]([C@@H](CC(=O)N1CCC[C@H]1[C@H](OC)[C@@H](C)C(=O)N[C@H](C)[C@@H](O)c1ccccc1)OC)N(C)C(=O)[C@@H](NC(=O)[C@H](C(C)C)N(C)C(=O)OCc1ccc(NC(=O)[C@H](C)NC(=O)[C@@H](NC(=O)CCOCCC(=O)NCCNc2ncc(-c3cc(C)cc(F)c3)c(N3CCC(N)CC3)c2-c2cc3ccc(F)cc3[nH]2)C(C)C)c(O[C@@H]2O[C@H](C(=O)O)[C@@H](O)[C@H](O)[C@H]2O)c1)C(C)C [Compound 116] | 21 nM | 0.19 nM | 14 nM |
| CC[C@H](C)[C@@H]([C@@H](CC(=O)N1CCC[C@H]1[C@H](OC)[C@@H](C)C(=O)N[C@H](C)[C@@H](O)c1ccccc1)OC)N(C)C(=O)[C@@H](NC(=O)[C@H](C(C)C)N(C)C(=O)OCc1ccc(NC(=O)[C@H](C)NC(=O)[C@@H](NC(=O)CCOCCC(=O)NCCNc2ncc(-c3cc(C)cc(F)c3)c(N3CCC(N)CC3)c2-c2cc3ccc(OC)cc3[nH]2)C(C)C)c(O[C@@H]2O[C@H](C(=O)O)[C@@H](O)[C@H](O)[C@H]2O)c1)C(C)C [Compound 117] | 58 nM | 0.46 nM | 19 nM |
| CC[C@H](C)[C@@H]([C@@H](CC(=O)N1CCC[C@H]1[C@H](OC)[C@@H](C)C(=O)N[C@H](C)[C@@H](O)c1ccccc1)OC)N(C)C(=O)[C@@H](NC(=O)[C@H](C(C)C)N(C)C(=O)OCc1ccc(NC(=O)[C@H](CCCNC(N)=O)NC(=O)[C@@H](NC(=O)CN(C)C(=O)CCOCCC(=O)NCCNc2ncc(-c3cc(C)cc(F)c3)c(N3CCC(N)CC3)c2-c2nc3ccc(Cl)cc3[nH]2)C(C)C)c(O[C@@H]2O[C@H](C(=O)O)[C@@H](O)[C@H](O)[C@H]2O)c1)C(C)C [Compound 118] | 22 nM | 0.24 nM | 9.3 nM |
| CC[C@H](C)[C@@H]([C@@H](CC(=O)N1CCC[C@H]1[C@H](OC)[C@@H](C)C(=O)N[C@H](C)[C@@H](O)c1ccccc1)OC)N(C)C(=O)[C@@H](NC(=O)[C@H](C(C)C)N(C)C(=O)OCc1ccc(NC(=O)[C@H](C)NC(=O)[C@@H](NC(=O)CCOCCC(=O)NCCNc2ncc(-c3cc(C)cc(F)c3)c(N3CCC(N)CC3)c2-c2cc3ccc(C#N)cc3[nH]2)C(C)C)c(O[C@@H]2O[C@H](C(=O)O)[C@@H](O)[C@H](O)[C@H]2O)c1)C(C)C [Compound 119] | 34 nM | 0.11 nM | 11 nM |
| CC[C@H](C)[C@@H]([C@@H](CC(=O)N1CCC[C@H]1[C@H](OC)[C@@H](C)C(=O)N[C@H](C)[C@@H](O)c1ccccc1)OC)N(C)C(=O)[C@@H](NC(=O)[C@H](C(C)C)N(C)C(=O)OCc1ccc(NC(=O)[C@H](C)NC(=O)[C@@H](NC(=O)C[C@@H](N)C(=O)NCCOCCC(=O)NCCNc2ncc(-c3cc(C)cc(F)c3)c(N3CCC(NC)CC3)c2-c2nc3ccc(Cl)cc3[nH]2)C(C)C)c(O[C@@H]2O[C@H](C(=O)O)[C@@H](O)[C@H](O)[C@H]2O)c1)C(C)C [Compound 120] | 20 nM | 0.088 nM | 5.2 nM |
| CC[C@H](C)[C@@H]([C@@H](CC(=O)N1CCC[C@H]1[C@H](OC)[C@@H](C)C(=O)N[C@H](C)[C@@H](O)c1ccccc1)OC)N(C)C(=O)[C@@H](NC(=O)[C@H](C(C)C)N(C)C(=O)OCc1ccc(NC(=O)[C@H](CCCNC(N)=O)NC(=O)[C@@H](NC(=O)C[C@@H](N)C(=O)NCCOCCC(=O)NCCNc2ncc(-c3cc(C)cc(F)c3)c(N3CCC(NC)CC3)c2-c2nc3ccc(Cl)cc3[nH]2)C(C)C)c(O[C@@H]2O[C@H](C(=O)O)[C@@H](O)[C@H](O)[C@H]2O)c1)C(C)C [Compound 121] | 19 nM | 0.14 nM | 5.3 nM |
| CC[C@H](C)[C@@H]([C@@H](CC(=O)N1CCC[C@H]1[C@H](OC)[C@@H](C)C(=O)N[C@H](C)[C@@H](O)c1ccccc1)OC)N(C)C(=O)[C@@H](NC(=O)[C@H](C(C)C)N(C)C(=O)OCc1ccc(NC(=O)[C@H](CCCNC(N)=O)NC(=O)[C@@H](NC(=O)C[C@@H](N)C(=O)NCCOCCOCCOCCOCCC(=O)NCCNc2ncc(-c3cc(C)cc(F)c3)c(N3CCC(NC)CC3)c2-c2nc3ccc(Cl)cc3[nH]2)C(C)C)c(O[C@@H]2O[C@H](C(=O)O)[C@@H](O)[C@H](O)[C@H]2O)c1)C(C)C [Compound 122] | 27 nM | 0.19 nM | 8.8 nM |
| CC[C@H](C)[C@@H]([C@@H](CC(=O)N1CCC[C@H]1[C@H](OC)[C@@H](C)C(=O)N[C@H](C)[C@@H](O)c1ccccc1)OC)N(C)C(=O)[C@@H](NC(=O)[C@H](C(C)C)N(C)C(=O)OCc1ccc(NC(=O)[C@H](CCCNC(N)=O)NC(=O)[C@@H](NC(=O)C[C@@H](N)C(=O)NCCOCCC(=O)NCCNc2ncc(-c3cc(C)cc(F)c3)c(N3CCC(NC)CC3)c2-c2nc3cc(F)cc(OC)c3[nH]2)C(C)C)c(O[C@@H]2O[C@H](C(=O)O)[C@@H](O)[C@H](O)[C@H]2O)c1)C(C)C [Compound 123] | 8.4 nM | 0.2 nM | 2.3 nM |
| CC[C@H](C)[C@@H]([C@@H](CC(=O)N1CCC[C@H]1[C@H](OC)[C@@H](C)C(=O)N[C@H](C)[C@@H](O)c1ccccc1)OC)N(C)C(=O)[C@@H](NC(=O)[C@H](C(C)C)N(C)C(=O)OCc1ccc(NC(=O)[C@H](C)NC(=O)[C@@H](NC(=O)CCOCCC(=O)NCCN(C)c2ncc(-c3cc(C)cc(F)c3)c(N3CCC(N)CC3)c2-c2nc3ccc(Cl)cc3[nH]2)C(C)C)c(O[C@@H]2O[C@H](C(=O)O)[C@@H](O)[C@H](O)[C@H]2O)c1)C(C)C [Compound 125] | 580 nM | 0.59 nM | 48 nM |
